In the supplement of paper PMC10331698:
± gives the standard deviation of the averaged measurements.

Columns and labels:
Assay in all cases: level (log10 ratio to DMSO vehicle control); higher = higher biomarker level / cell amount than vehicle control
Settings in all cases: in DMSO
[1] = compound: C=C(C)C(=O)OCCC(F)(F)C(F)(F)C(F)(F)C(F)(F)C(F)(F)C(F)(F)F [6:2 Fluorotelomer methacrylate]
Procedure: (§1)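 BioMAP Diversity Plus panel of 12 human primary cell co-culture systems (3C, 4H, LPS, SAg, BT, BF4T, BE3C, CASM3C, HDF3CGF, KF3CT, MyoF, Mphg). Compounds were added 1 h before stimulation and left for 24 h (MyoF 48 h; BT 72 h for soluble read-outs or 6 d for IgG). Biomarkers were read by ELISA, cytotoxicity by SRB, PBMC viability and proliferation by Alamar Blue. Each well value was divided by the mean of 8 DMSO control wells on the same plate and log10 transformed; duplicate blinded samples were tested at 4 concentrations.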

[2] = compound: FC(F)(F)C(F)(F)C(F)(F)C(F)(F)C(F)(F)C(F)(F)CC1CO1 [3-(Perfluorohexyl)-1,2-epoxypropane]
Procedure: as §1

Nonafluoropentanamide = compound: NC(=O)C(F)(F)C(F)(F)C(F)(F)C(F)(F)F [Nonafluoropentanamide]
Procedure: as §1

[3] = compound: NS(=O)(=O)C(F)(F)C(F)(F)C(F)(F)C(F)(F)C(F)(F)C(F)(F)F [Perfluorohexanesulfonamide]
Procedure: as §1

[4] = compound: O=C(O)C(F)(F)C(F)(F)C(F)(F)C(F)(F)C(F)(F)C(F)(F)C(F)(F)C(F)(F)C(F)(F)C(F)F [11-H-Perfluoroundecanoic acid]
Procedure: as §1

[5] = compound: O=C(O)C=CC(F)(C(F)(F)F)C(F)(F)F [3-(Perfluoroisopropyl)-2-propenoic acid]
Procedure: as §1

[6] = compound: O=S(=O)(F)C(F)(F)C(F)(F)C(F)(F)C(F)(F)C(F)(F)C(F)(F)C(F)(F)C(F)(F)F [Perfluorooctanesulfonyl fluoride]
Procedure: as §1

| Test System | level (log10) ([1]; 6700 nM) | level (log10) ([1]; 20000 nM) | level (log10) ([1]; 60000 nM) | level (log10) ([2]; 6700 nM) | level (log10) ([2]; 20000 nM) | level (log10) ([2]; 60000 nM) | level (log10) (Nonafluoropentanamide; 6700 nM) | level (log10) (Nonafluoropentanamide; 20000 nM) | level (log10) (Nonafluoropentanamide; 60000 nM) | level (log10) ([3]; 6700 nM) | level (log10) ([3]; 20000 nM) | level (log10) ([3]; 60000 nM) | level (log10) ([4]; 6700 nM) | level (log10) ([4]; 20000 nM) | level (log10) ([5]; 6700 nM) | level (log10) ([5]; 20000 nM) | level (log10) ([5]; 60000 nM) | level (log10) ([6]; 6700 nM) | level (log10) ([6]; 20000 nM) | level (log10) ([6]; 60000 nM) |
| --- | --- | --- | --- | --- | --- | --- | --- | --- | --- | --- | --- | --- | --- | --- | --- | --- | --- | --- | --- | --- |
| 4H:CD87/uPAR | -0.015 ± 0.025 | 0.0015 ± 0.019 | -0.0095 ± 0.0035 | 0.0645 ± 0.044 | 0.0775 ± 0.018 | 0.107 ± 0.022 | -0.032 ± 0.0071 | 0.0085 ± 0.005 | 0.009 ± 0.041 | -0.01 ± 0.011 | 0.0115 ± 0.013 | -0.0605 ± 0.047 | -0.0115 ± 0.033 | -0.0295 ± 0.05 | 0.034 ± 0.016 | 0.055 ± 0.054 | 0.105 ± 0.027 | 0.013 ± 0.028 | 0.008 ± 0.033 | 0.001 ± 0.0042 |
| 4H:CD106/VCAM-1 | -0.002 ± 0.021 | -0.013 ± 0.0099 | -0.0045 ± 0.015 | -0.002 ± 0.027 | -0.0225 ± 0.00071 | -0.0025 ± 0.011 | 0.003 ± 0.0028 | 0.0095 ± 0.0064 | 0.008 ± 0.013 | -0.0245 ± 0.011 | -0.0165 ± 0.015 | -0.08 ± 0.034 | -0.0135 ± 0.016 | -0.0015 ± 0.03 | 0.0275 ± 0.011 | -0.0175 ± 0.019 | 0.016 ± 0.0014 | 0.0005 ± 0.015 | -0.0105 ± 0.012 | -0.012 ± 0.011 |
| 4H:SRB | -0.0005 ± 0.0035 | 0.0005 ± 0.016 | 0.008 ± 0.014 | 0.007 ± 0.0028 | -0.003 ± 0.0057 | 0.015 ± 0.023 | -0.0055 ± 0.00071 | -0.0055 ± 0.011 | 0.0055 ± 0.021 | -0.01 ± 0.0085 | -0.028 ± 0.0099 | -0.101 ± 0.0014 | 0.0145 ± 0.0092 | 0.0105 ± 0.018 | 0.001 ± 0.018 | -0.0045 ± 0.029 | 0.004 ± 0.021 | 0.0015 ± 0.00071 | 0.001 ± 0.0028 | -0.0035 ± 0.0064 |
| 4H:VEGFR2 | -0.047 ± 0.034 | -0.0305 ± 0.00071 | -0.0265 ± 0.039 | -0.0015 ± 0.019 | 0.0235 ± 0.011 | 0.017 ± 0.014 | -0.0435 ± 0.0078 | -0.0135 ± 0.029 | -0.015 | -0.008 ± 0.023 | -0.023 ± 0.013 | -0.0965 ± 0.022 | -0.0245 ± 0.032 | 0.001 ± 0.047 | -0.0145 ± 0.019 | 0.004 ± 0.05 | 0.01 ± 0.045 | -0.001 ± 0.03 | -0.01 ± 0.021 | 0 ± 0.027 |
| BE3C:Keratin 8/18 | -0.051 ± 0.055 | -0.0445 ± 0.053 | -0.0305 ± 0.035 | -0.0045 ± 0.00071 | -0.0115 ± 0.00071 | 0.0015 ± 0.018 | -0.0245 ± 0.0064 | -0.035 ± 0.013 | -0.026 ± 0.0099 | 0.0065 ± 0.012 | 0.0055 ± 0.033 | -0.033 ± 0.025 | -0.0125 ± 0.025 | -0.0805 ± 0.019 | 0.0015 ± 0.019 | -0.0065 ± 0.012 | 0.002 ± 0.0028 | -0.012 ± 0.0014 | -0.01 ± 0.016 | -0.0105 ± 0.005 |
| BE3C:MMP-9 | 0.014 ± 0.0071 | 0.015 ± 0.0042 | 0.025 ± 0.011 | -0.036 ± 0.0042 | -0.036 | -0.004 ± 0.042 | -0.0405 ± 0.03 | -0.026 ± 0.0071 | -0.0095 ± 0.005 | -0.0585 ± 0.015 | -0.0435 ± 0.005 | -0.131 ± 0.028 | -0.058 ± 0.04 | -0.277 ± 0.049 | -0.018 ± 0.0042 | -0.008 ± 0.0028 | 0.007 ± 0.04 | -0.025 ± 0.024 | -0.02 ± 0.0042 | -0.026 ± 0.0071 |
| BE3C:PAI-I | -0.0115 ± 0.037 | -0.019 ± 0.034 | -0.016 ± 0.033 | -0.003 ± 0.0014 | -0.006 ± 0.0028 | 0.013 ± 0.0099 | -0.087 ± 0.033 | -0.137 ± 0.052 | -0.117 ± 0.044 | -0.055 ± 0.062 | -0.087 ± 0.079 | -0.165 ± 0.068 | -0.082 ± 0.018 | -0.367 ± 0.047 | 0.0105 ± 0.00071 | -0.003 ± 0.0042 | 0.0065 ± 0.023 | -0.021 ± 0.0099 | -0.022 ± 0.052 | -0.0135 ± 0.056 |
| BE3C:SRB | 0.0015 ± 0.0035 | 0.003 ± 0.0028 | 0.0025 ± 0.0021 | 0.008 ± 0.0057 | 0.0025 ± 0.0064 | 0.011 ± 0.018 | 0.0035 ± 0.011 | 0.0065 ± 0.0035 | -0.0005 ± 0.005 | -0.0065 ± 0.00071 | -0.022 | -0.058 ± 0.0099 | -0.0095 ± 0.0064 | -0.235 ± 0.011 | -0.0005 ± 0.005 | -0.002 ± 0.0014 | 0.013 ± 0.021 | -0.003 ± 0.0014 | 0.0005 ± 0.005 | 0.0045 ± 0.021 |
| BE3C:tPA | -0.0525 ± 0.036 | -0.053 ± 0.018 | -0.056 ± 0.013 | 0.0085 ± 0.019 | -0.014 ± 0.014 | 0.0325 ± 0.018 | 0.003 ± 0.0085 | 0.008 ± 0.017 | 0.0095 ± 0.012 | -0.0075 ± 0.035 | 0.0005 ± 0.016 | -0.245 ± 0.059 | 0.036 ± 0.058 | -0.338 ± 0.018 | -0.004 ± 0.045 | -0.0215 ± 0.042 | 0.022 ± 0.0071 | -0.045 ± 0.075 | -0.027 ± 0.034 | -0.027 ± 0.027 |
| BE3C:uPA | 0.0055 ± 0.0064 | 0.0085 ± 0.0092 | 0.019 ± 0.021 | -0.005 ± 0.014 | -0.006 ± 0.0042 | 0.007 ± 0.02 | 0.0115 ± 0.016 | 0.009 ± 0.0099 | 0.0105 ± 0.0078 | -0.0115 ± 0.032 | 0.0025 ± 0.037 | -0.0365 ± 0.037 | -0.005 ± 0.02 | -0.211 ± 0.029 | -0.0045 ± 0.005 | -0.001 ± 0.0057 | 0.0045 ± 0.0021 | 0.0045 ± 0.0021 | -0.011 ± 0.0057 | 0.004 ± 0.014 |
| CASM3C:CCL2/MCP-1 | -0.005 ± 0.0028 | -0.011 ± 0.0014 | -0.0015 ± 0.021 | 0.0035 ± 0.022 | 0 ± 0.031 | 0.034 ± 0.028 | -0.014 ± 0.0028 | 0.001 ± 0.0099 | -0.001 ± 0.0014 | -0.006 ± 0.0014 | 0.0015 ± 0.012 | 0.028 ± 0.017 | 0.0005 ± 0.0035 | 0.012 ± 0.024 | 0.007 ± 0.017 | -0.0055 ± 0.011 | 0.023 ± 0.044 | -0.004 ± 0.014 | -0.0035 ± 0.005 | 0.0055 ± 0.03 |
| CASM3C:CD87/uPAR | -0.014 ± 0.028 | -0.0285 ± 0.023 | -0.0355 ± 0.023 | -0.0105 ± 0.023 | -0.025 ± 0.013 | -0.0165 ± 0.012 | -0.0215 ± 0.013 | -0.023 ± 0.0014 | 0.0025 ± 0.00071 | -0.01 ± 0.0071 | -0.028 ± 0.0028 | -0.029 ± 0.033 | -0.0165 ± 0.011 | -0.025 ± 0.0071 | -0.006 ± 0.0057 | -0.0135 ± 0.012 | -0.015 ± 0.0042 | 0.0105 ± 0.0035 | 0.0065 ± 0.005 | 0.0225 ± 0.012 |
| CASM3C:CD106/VCAM-1 | -0.0005 ± 0.011 | -0.005 ± 0.016 | -0.005 ± 0.0042 | -0.024 ± 0.0099 | -0.0175 ± 0.022 | -0.01 ± 0.034 | -0.0405 ± 0.039 | -0.0105 ± 0.0035 | 0.01 ± 0.042 | -0.014 ± 0.016 | -0.0285 ± 0.005 | -0.0235 ± 0.0064 | -0.016 ± 0.027 | -0.023 ± 0.021 | -0.0315 ± 0.013 | -0.015 ± 0.0014 | -0.0045 ± 0.071 | 0.0015 ± 0.032 | 0.0035 ± 0.05 | -0.008 ± 0.0085 |
| CASM3C:CD141/Thrombomodulin | 0.016 ± 0.071 | 0.021 ± 0.067 | 0.03 ± 0.081 | 0.011 ± 0.011 | 0.005 ± 0.013 | 0.0225 ± 0.029 | 0.011 ± 0.089 | -0.024 ± 0.064 | -0.0285 ± 0.06 | -0.022 ± 0.025 | -0.0305 ± 0.021 | 0.016 ± 0.014 | -0.015 ± 0.021 | -0.0085 ± 0.019 | -0.0215 ± 0.011 | -0.001 ± 0.023 | 0.0075 ± 0.033 | -0.004 ± 0.0042 | -0.01 ± 0.0014 | -0.0075 ± 0.005 |
| CASM3C:CD142/Tissue Factor | -0.0075 ± 0.033 | -0.0175 ± 0.029 | -0.0035 ± 0.0078 | -0.0085 ± 0.005 | -0.0415 ± 0.042 | 0.005 ± 0.073 | 0.0195 ± 0.13 | 0.0125 ± 0.026 | -0.031 ± 0.028 | -0.0145 ± 0.023 | -0.0275 ± 0.012 | 0.0175 ± 0.018 | -0.031 ± 0.0085 | -0.0365 ± 0.012 | -0.037 ± 0.028 | -0.0315 ± 0.053 | -0.01 ± 0.067 | 0.018 ± 0.0014 | 0.0095 ± 0.0035 | 0.0025 ± 0.005 |
